According to patent US8497245B2, “Trypsin-like serine protease inhibitors, their preparation and use as selective inhibitors of the clotting factors IIa and Xa” (The Medicines Company (Leipzig) GmbH, priority 2010, dated 2013):

target: T1, Subcomponent "s" of Human Complement Component 1 (h C1s) (Homo sapiens, UniProt P09871); assay: Inhibition of human C1s (reference enzyme); format: biochemical; conditions: S-2314 substrate; read-out: Ki h Cls
T1 construct: purchased Calbiochem
T1 sequence (P09871 438-688 limits assumed): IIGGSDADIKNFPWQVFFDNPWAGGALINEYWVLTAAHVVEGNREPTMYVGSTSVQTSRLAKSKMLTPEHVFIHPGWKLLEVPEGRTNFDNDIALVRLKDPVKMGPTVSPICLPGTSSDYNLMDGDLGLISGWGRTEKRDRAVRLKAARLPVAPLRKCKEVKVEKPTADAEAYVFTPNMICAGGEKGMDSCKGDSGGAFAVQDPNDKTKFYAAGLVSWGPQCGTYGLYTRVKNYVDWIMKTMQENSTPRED
T1 sequence (P09871 16-437 partner limits assumed): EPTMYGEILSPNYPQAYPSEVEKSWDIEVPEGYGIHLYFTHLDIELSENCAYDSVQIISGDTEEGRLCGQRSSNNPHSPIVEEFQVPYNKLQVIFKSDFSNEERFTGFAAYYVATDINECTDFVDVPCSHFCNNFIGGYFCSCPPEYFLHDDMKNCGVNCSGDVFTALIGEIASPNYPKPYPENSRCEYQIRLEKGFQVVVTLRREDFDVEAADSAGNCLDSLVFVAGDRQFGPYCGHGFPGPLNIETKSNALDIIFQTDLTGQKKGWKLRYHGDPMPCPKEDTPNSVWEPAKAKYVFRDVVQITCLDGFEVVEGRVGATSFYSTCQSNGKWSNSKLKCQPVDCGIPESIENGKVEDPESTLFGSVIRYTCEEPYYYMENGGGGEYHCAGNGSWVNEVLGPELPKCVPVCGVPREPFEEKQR
Experimental: (§1) The inhibitory effect against the individual purified enzymes was determined in analogy to a previously disclosed method (Stürzebecher et al., J. Med. Chem., 40, 3091-3099 (1997)).
(§2) The release of p-nitroaniline (p-NA, the chromogenic product of the proteolytic activity), was determined by change in absorbance at 405 nm. The equilibrium rates were used to calculate the inhibitor/enzyme dissociation constant (Ki values) by parameter fitting in accordance with the rate equation for competitive inhibition using GraFit (version 4 from Erithacus). The results are reported as Ki values (nanomolar) in table 7 and are the average of at least three determinations.
(§3) Dissociation constants were calculated as described herein.

Row | Ki | SMILES
1 | > 100 µM | NCc1ccc(Cl)cc1CNC(=O)[C@@H]1CCCN1C(=O)[C@@H](CCC(=O)N1CCNCC1)NS(=O)(=O)Cc1ccccc1 [Compound 2.31]
2 | > 100 µM | CC(=O)N1CCC(N(C)C(=O)C[C@@H](NS(=O)(=O)Cc2ccccc2)C(=O)N2CCC[C@H]2C(=O)NCc2cc(Cl)ccc2CN)CC1 [Compound 2.2]

target: T2, Human plasmin (h plasmin) (Homo sapiens, UniProt P00747); assay: Inhibition of human plasmin (reference enzyme); format: biochemical; conditions: Chromozym PL substrate
T2 construct: purchased Calbiochem
T2 sequence (P00747 581-810 limits assumed): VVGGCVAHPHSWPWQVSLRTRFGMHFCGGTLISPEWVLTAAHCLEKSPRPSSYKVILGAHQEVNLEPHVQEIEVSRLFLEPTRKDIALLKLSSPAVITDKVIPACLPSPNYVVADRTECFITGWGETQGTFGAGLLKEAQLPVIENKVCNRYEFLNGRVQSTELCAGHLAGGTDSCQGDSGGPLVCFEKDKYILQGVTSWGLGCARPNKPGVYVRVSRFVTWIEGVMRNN
T2 sequence (P00747 97-580 partner limits assumed): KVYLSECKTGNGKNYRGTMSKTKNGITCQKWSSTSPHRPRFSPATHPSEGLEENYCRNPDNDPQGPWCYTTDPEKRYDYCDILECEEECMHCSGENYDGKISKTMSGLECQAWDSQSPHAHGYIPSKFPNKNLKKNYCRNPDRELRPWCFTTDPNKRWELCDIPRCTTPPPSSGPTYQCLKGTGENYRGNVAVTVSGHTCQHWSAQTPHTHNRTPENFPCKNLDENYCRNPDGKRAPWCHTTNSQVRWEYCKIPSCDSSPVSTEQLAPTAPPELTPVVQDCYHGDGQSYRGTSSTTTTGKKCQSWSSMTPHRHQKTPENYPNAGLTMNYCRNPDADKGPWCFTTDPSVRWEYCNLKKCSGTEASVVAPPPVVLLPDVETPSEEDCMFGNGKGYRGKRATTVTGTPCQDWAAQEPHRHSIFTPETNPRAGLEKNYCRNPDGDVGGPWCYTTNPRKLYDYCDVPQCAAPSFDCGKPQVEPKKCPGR
Experimental: as §1, §2, §3

Row | Ki | SMILES
3 | > 10 µM | NCc1ccc(Cl)cc1CNC(=O)[C@@H]1CCCN1C(=O)[C@@H](CCC(=O)N1CCNCC1)NS(=O)(=O)Cc1ccccc1 [Compound 2.31]
4 | > 10 µM | CC(=O)N1CCC(N(C)C(=O)C[C@@H](NS(=O)(=O)Cc2ccccc2)C(=O)N2CCC[C@H]2C(=O)NCc2cc(Cl)ccc2CN)CC1 [Compound 2.2]

target: T3, Human urokinase type plasminogen activator (h u-PA) (Homo sapiens, UniProt P00749); assay: Inhibition of human urokinase type plasminogen activator (reference enzyme); format: biochemical; conditions: H-Glu-Gly-Arg-pNA substrate
T3 construct: purchased MEDAC GmbH Urokinase HS medac
Experimental: as §1, §2, §3

Row | Ki | SMILES
5 | > 100 µM | NCc1ccc(Cl)cc1CNC(=O)[C@@H]1CCCN1C(=O)[C@@H](CCC(=O)N1CCNCC1)NS(=O)(=O)Cc1ccccc1 [Compound 2.31]
6 | > 50 µM | CC(=O)N1CCC(N(C)C(=O)C[C@@H](NS(=O)(=O)Cc2ccccc2)C(=O)N2CCC[C@H]2C(=O)NCc2cc(Cl)ccc2CN)CC1 [Compound 2.2]

target: T4, Human tissue-type plasminogen activator (h t-PA) (Homo sapiens, UniProt P00750); assay: Inhibition of human tissue-type plasminogen activator (reference enzyme); format: biochemical; conditions: Pefachrome tPA substrate; read-out: Ki h t-PA
T4 construct: purchased Boehringer Ingelheim Actilyse
T4 sequence (P00750 36-562): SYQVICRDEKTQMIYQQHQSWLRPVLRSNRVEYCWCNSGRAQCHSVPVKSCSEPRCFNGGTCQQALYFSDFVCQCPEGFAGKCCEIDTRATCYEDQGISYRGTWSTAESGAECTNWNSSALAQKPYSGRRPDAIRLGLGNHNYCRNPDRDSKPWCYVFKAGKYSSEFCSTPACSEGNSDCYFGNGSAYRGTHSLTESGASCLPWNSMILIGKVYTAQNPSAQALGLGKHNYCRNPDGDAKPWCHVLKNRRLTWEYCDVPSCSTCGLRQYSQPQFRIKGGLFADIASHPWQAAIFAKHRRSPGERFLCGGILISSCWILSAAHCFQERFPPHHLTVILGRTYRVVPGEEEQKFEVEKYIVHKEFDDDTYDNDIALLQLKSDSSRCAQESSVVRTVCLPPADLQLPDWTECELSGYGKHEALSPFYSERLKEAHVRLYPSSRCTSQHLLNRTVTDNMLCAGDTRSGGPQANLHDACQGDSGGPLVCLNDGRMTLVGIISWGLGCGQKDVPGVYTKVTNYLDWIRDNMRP
Experimental: The equilibrium rates were used to calculate the inhibitor/enzyme dissociation constant (Ki values) by parameter fitting in accordance with the rate equation for competitive inhibition using GraFit (version 4 from Erithacus).
as §3

Row | Ki | SMILES
7 | > 20 µM | NCc1ccc(Cl)cc1CNC(=O)[C@@H]1CCCN1C(=O)[C@@H](CCC(=O)N1CCNCC1)NS(=O)(=O)Cc1ccccc1 [Compound 2.31]
8 | > 100 µM | CC(=O)N1CCC(N(C)C(=O)C[C@@H](NS(=O)(=O)Cc2ccccc2)C(=O)N2CCC[C@H]2C(=O)NCc2cc(Cl)ccc2CN)CC1 [Compound 2.2]

target: T5, Subcomponent "r" of Human Complement Component 1 (h C1r) (Homo sapiens, UniProt P00736); assay: Inhibition of human C1r (reference enzyme); format: biochemical; conditions: S-2314 substrate; read-out: Ki h Clr
T5 construct: purchased Calbiochem
T5 sequence (P00736 464-705 limits assumed): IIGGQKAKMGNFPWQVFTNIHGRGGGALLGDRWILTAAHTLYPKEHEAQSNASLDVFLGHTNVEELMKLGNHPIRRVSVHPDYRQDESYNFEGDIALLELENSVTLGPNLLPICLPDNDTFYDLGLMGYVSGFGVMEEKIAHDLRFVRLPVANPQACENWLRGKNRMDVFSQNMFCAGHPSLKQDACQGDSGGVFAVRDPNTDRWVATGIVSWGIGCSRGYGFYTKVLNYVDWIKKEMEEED
T5 sequence (P00736 18-463 partner limits assumed): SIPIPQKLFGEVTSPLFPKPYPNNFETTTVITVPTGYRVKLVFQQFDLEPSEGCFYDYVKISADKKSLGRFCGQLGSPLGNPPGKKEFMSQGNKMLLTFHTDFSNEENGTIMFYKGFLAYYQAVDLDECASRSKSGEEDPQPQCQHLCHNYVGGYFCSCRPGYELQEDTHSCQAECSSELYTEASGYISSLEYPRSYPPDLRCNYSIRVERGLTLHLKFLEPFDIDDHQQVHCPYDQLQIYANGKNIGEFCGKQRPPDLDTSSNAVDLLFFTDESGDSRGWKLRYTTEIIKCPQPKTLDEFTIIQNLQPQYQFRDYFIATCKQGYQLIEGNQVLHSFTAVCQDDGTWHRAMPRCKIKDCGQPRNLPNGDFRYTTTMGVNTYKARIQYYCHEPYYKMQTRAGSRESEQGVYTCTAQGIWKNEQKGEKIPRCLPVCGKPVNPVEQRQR
Experimental: as §1, §2, §3

Row | Ki | SMILES
9 | > 100 µM | NCc1ccc(Cl)cc1CNC(=O)[C@@H]1CCCN1C(=O)[C@@H](CCC(=O)N1CCNCC1)NS(=O)(=O)Cc1ccccc1 [Compound 2.31]
10 | > 50 µM | CC(=O)N1CCC(N(C)C(=O)C[C@@H](NS(=O)(=O)Cc2ccccc2)C(=O)N2CCC[C@H]2C(=O)NCc2cc(Cl)ccc2CN)CC1 [Compound 2.2]

target: T6, human factor IIa (human alpha-thrombin) (Homo sapiens, UniProt P00734); assay: Inhibition constants for human factor IIa, chromogenic substrate assay; format: biochemical; conditions: 25° C., Pefachrome tPA substrate, average of at least three determinations; read-out: Ki h FIIa
T6 construct: human alpha-thrombin from Enzyme Research Laboratories; purchased Enzyme Research Laboratories
Experimental: as §1
(§4) 200 μL of TBS (0.05 M trishydroxymethylaminomethane; 0.154 M NaCl, 2% ethanol, pH 8.0)
as §2

Row | Ki | SMILES
11 | 0.00048 µM | NCc1ccc(Cl)cc1CNC(=O)[C@@H]1CCCN1C(=O)[C@@H](CCC(=O)N1CCNCC1)NS(=O)(=O)Cc1ccccc1 [Compound 2.31]
12 | 0.0031 µM | CC(=O)N1CCC(N(C)C(=O)C[C@@H](NS(=O)(=O)Cc2ccccc2)C(=O)N2CCC[C@H]2C(=O)NCc2cc(Cl)ccc2CN)CC1 [Compound 2.2]

target: T7, Human Activated Protein C (h aPC) (Homo sapiens, UniProt P04070); assay: Inhibition of human activated protein C (reference enzyme); format: biochemical; conditions: Pefachrome PCa substrate
T7 construct: purchased Enzyme Research Laboratories
T7 sequence (P04070 212-450 limits assumed): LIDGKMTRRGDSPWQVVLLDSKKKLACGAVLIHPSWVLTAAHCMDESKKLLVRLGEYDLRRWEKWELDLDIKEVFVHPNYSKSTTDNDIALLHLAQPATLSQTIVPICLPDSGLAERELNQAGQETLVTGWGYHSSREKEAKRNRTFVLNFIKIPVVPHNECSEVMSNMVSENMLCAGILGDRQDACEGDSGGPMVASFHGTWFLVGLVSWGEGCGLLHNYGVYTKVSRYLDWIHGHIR
T7 sequence (P04070 43-197 partner limits assumed): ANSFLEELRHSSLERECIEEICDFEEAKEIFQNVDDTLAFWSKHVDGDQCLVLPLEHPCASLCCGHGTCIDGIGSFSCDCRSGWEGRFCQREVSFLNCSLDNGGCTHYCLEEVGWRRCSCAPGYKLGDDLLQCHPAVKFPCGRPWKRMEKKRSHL
Experimental: as §1, §2, §3

Row | Ki | SMILES
13 | > 100 µM | NCc1ccc(Cl)cc1CNC(=O)[C@@H]1CCCN1C(=O)[C@@H](CCC(=O)N1CCNCC1)NS(=O)(=O)Cc1ccccc1 [Compound 2.31]
14 | > 90 µM | CC(=O)N1CCC(N(C)C(=O)C[C@@H](NS(=O)(=O)Cc2ccccc2)C(=O)N2CCC[C@H]2C(=O)NCc2cc(Cl)ccc2CN)CC1 [Compound 2.2]

target: T8, Human plasma kallikrein (h PK) (Homo sapiens, UniProt P03952); assay: Inhibition of human plasma kallikrein (reference enzyme); format: biochemical; conditions: S2302 substrate
T8 construct: purchased Enzyme Research Laboratories
T8 sequence (P03952 391-638 limits assumed): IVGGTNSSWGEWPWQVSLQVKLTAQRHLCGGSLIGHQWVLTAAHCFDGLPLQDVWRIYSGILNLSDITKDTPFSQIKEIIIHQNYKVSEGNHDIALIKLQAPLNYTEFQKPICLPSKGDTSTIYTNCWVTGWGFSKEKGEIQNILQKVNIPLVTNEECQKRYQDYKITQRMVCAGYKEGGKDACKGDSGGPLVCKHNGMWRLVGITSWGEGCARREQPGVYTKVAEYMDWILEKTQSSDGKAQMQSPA
T8 sequence (P03952 20-390 partner limits assumed): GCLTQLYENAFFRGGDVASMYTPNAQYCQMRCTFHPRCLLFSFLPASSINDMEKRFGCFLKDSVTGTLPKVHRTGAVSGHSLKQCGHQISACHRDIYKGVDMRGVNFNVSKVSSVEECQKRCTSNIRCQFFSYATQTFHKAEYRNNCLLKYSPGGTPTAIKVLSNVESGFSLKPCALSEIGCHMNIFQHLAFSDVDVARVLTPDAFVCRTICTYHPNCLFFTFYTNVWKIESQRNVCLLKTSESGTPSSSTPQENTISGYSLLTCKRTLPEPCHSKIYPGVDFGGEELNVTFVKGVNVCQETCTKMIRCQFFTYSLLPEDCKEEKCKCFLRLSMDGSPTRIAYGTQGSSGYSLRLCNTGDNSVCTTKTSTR
Experimental: as §1, §2, §3

Row | Ki | SMILES
15 | 4 µM | NCc1ccc(Cl)cc1CNC(=O)[C@@H]1CCCN1C(=O)[C@@H](CCC(=O)N1CCNCC1)NS(=O)(=O)Cc1ccccc1 [Compound 2.31]
16 | 4.46 µM | CC(=O)N1CCC(N(C)C(=O)C[C@@H](NS(=O)(=O)Cc2ccccc2)C(=O)N2CCC[C@H]2C(=O)NCc2cc(Cl)ccc2CN)CC1 [Compound 2.2]

target: T9, Human urinary kallikrein (h uKK) (Homo sapiens, UniProt P06870); assay: Inhibition of human urinary kallikrein (reference enzyme); format: biochemical; conditions: S-2266 substrate
T9 construct: purchased Lee Biosolutions
T9 sequence (P06870 25-262): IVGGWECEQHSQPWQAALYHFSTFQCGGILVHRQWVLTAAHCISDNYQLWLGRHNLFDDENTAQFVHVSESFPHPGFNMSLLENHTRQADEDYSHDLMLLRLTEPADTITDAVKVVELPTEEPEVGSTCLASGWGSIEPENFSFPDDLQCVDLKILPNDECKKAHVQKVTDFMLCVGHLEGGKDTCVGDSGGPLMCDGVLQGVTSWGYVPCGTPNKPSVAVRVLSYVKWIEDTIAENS
Experimental: as §1, §2, §3

Row | Ki | SMILES
17 | > 100 µM | NCc1ccc(Cl)cc1CNC(=O)[C@@H]1CCCN1C(=O)[C@@H](CCC(=O)N1CCNCC1)NS(=O)(=O)Cc1ccccc1 [Compound 2.31]
18 | > 10 µM | CC(=O)N1CCC(N(C)C(=O)C[C@@H](NS(=O)(=O)Cc2ccccc2)C(=O)N2CCC[C@H]2C(=O)NCc2cc(Cl)ccc2CN)CC1 [Compound 2.2]

target: T10, human Factor Xa (Homo sapiens, UniProt P00742); assay: Inhibition constants for human factor Xa, chromogenic substrate assay; format: biochemical; conditions: 25° C., Pefachrome FXa substrate, average of at least three determinations; read-out: Ki h FXa
T10 construct: human Factor Xa from Enzyme Research Laboratories; purchased Enzyme Research Laboratories
T10 sequence (P00742 235-488 limits assumed): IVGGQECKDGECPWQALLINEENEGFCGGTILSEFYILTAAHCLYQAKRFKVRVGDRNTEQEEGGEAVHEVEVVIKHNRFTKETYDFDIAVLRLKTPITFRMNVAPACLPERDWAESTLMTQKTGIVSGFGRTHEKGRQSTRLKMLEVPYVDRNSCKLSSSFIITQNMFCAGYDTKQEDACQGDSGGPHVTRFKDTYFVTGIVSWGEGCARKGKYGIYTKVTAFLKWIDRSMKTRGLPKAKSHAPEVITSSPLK
T10 sequence (P00742 41-179 partner limits assumed): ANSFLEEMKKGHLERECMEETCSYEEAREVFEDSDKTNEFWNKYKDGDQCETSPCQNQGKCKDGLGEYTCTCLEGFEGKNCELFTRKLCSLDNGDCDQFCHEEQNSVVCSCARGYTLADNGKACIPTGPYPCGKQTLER
Experimental: as §1, §4, §2

Row | Ki | SMILES
19 | 0.021 µM | NCc1ccc(Cl)cc1CNC(=O)[C@@H]1CCCN1C(=O)[C@@H](CCC(=O)N1CCNCC1)NS(=O)(=O)Cc1ccccc1 [Compound 2.31]
20 | 0.023 µM | CC(=O)N1CCC(N(C)C(=O)C[C@@H](NS(=O)(=O)Cc2ccccc2)C(=O)N2CCC[C@H]2C(=O)NCc2cc(Cl)ccc2CN)CC1 [Compound 2.2]
